The values that follow come from patent US10710984B2, “N-[(Pyrimidinylamino)propanyl]-and N-[(Pyridinylamino)-propanyl]arylcarboxamides” (Boehringer Ingelheim International GmbH, priority 2016, dated 2020).

One series concerns the target T1, OX2R (Homo sapiens, UniProt O43614).
T1 sequence (O43614 1-444): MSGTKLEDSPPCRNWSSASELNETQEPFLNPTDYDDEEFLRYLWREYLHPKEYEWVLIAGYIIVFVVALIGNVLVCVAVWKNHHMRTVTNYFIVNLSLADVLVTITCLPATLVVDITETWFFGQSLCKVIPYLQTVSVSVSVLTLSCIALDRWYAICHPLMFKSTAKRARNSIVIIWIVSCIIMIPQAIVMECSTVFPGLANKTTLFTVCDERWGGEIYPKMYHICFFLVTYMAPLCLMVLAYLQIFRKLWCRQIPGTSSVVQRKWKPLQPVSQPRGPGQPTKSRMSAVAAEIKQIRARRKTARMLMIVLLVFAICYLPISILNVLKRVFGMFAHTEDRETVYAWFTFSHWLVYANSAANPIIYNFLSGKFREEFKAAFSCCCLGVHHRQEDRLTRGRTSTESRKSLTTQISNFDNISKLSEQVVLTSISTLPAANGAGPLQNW
As to the kind of experiment: OX2R assay of WO2016/034882, Table 3 (Method B). The following applies: read-out: OX2R IC50 (corresponds to pIC50) (converted).

In a further series the target is T2, human Orexin 1 receptor (Homo sapiens, UniProt O43613).
T2 construct: CHO-K1 cells stably expressing the full-length human Orexin 1 receptor and the aequorin photoprotein; expressed in transfected cells; host or cells: CHO-K1 (CHO-K1/hOx1)
T2 sequence (O43613 1-425): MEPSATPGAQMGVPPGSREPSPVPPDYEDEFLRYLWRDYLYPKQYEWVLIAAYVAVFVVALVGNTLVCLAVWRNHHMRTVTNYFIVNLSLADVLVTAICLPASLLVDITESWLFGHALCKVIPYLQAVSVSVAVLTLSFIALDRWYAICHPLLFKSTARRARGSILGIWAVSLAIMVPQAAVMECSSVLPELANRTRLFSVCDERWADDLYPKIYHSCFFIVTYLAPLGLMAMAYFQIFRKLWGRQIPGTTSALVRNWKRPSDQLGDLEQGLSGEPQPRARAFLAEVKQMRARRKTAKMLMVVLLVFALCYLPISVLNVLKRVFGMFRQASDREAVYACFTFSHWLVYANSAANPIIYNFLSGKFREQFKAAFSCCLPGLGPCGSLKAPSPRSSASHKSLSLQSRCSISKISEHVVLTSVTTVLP
Nature of the series: Assay A: in vitro testing of OX1R potency, OX1R IP1. In kind it is cell-based. The conditions noted are these: Table 4a; 50 nM Orexin A.

Another series has as its target T3, human orexin 2 receptor (Homo sapiens, UniProt O43614).
T3 construct: CHO-K1 cells stably expressing the full-length human orexin 2 receptor and the aequorin photoprotein; expressed in transfected cells; host or cells: CHO-K1 (CHO-K1/hOx2)
T3 sequence (O43614 1-444): T1 sequence (O43614 1-444)
As to the kind of experiment: Assay B: in vitro testing of OX2R potency, OX2R IP1. In kind it is cell-based. The conditions noted are these: Table 4a; 0.5 nM Orexin A. From the text:
Activation of the orexin receptors expressed in cell lines results in an increase in intracellular IP3 concentration. IP1, a downstream metabolite of IP3, accumulates in cells following receptor activation and is stable in the presence of LiCl. Using Homogeneous Time-Resolved Fluorescence technology with Lumi4-Tb cryptate (commercially available from Cisbio Bioassay) and a suitable fluorescence plate reader. […] Chem. Genomics 2009, 3, 22-32. This technique is used to characterize pharmacological modification of the orexin receptors.
B. In Vitro Testing of OX2R Potency: OX2R IP1
IP1 measurements are performed in CHO-K1 cells stably expressing the full-length human orexin 2 receptor and the aequorin photoprotein. Cells are cultivated in Ham's nutrient mixture F12 medium with 10% fetal calf serum, in a 37° C., 95% humidity and 5% CO2 incubator. The CHO-K1/hOx2 cell mass is expanded to larger cell numbers. The cells are obtained as frozen cells in cryo-vials and stored until use at −150° C. The viability of the cells after thawing is >90%. In preparation for the assay, 24 hours before the assay, the cells are thawed at 37° C. and immediately diluted with cell culture medium. After centrifugation, the cell pellet is re-suspended in medium and then distributed into the assay plates with a density of 5000 cells/25 μL per well. The plates are incubated for one hour at room temperature to reduce edge effects before they are incubated for 24 hours at 37° C./5% CO2. Compounds are prepared by a 8-point serial dilution in DMSO and a final dilution step into assay buffer (HBSS with 20 mM HEPES, 0.1% BSA and 50 mM LiCl, pH 7.4) to ensure a final DMSO concentration of 1% in the assay. On the day of the assay, cells in the plate are washed twice with 60 μL assay buffer (20 μL buffer remained in the wells after washing), followed by adding 5 μL per well of compounds diluted in assay buffer. After 15 minutes of incubation at room temperature 5 μL per well of Orexin A peptide (final concentration: 0.5 nM) dissolved in assay buffer is added to the assay plate. The assay plate is incubated for 60 minutes at 37° C. Then 5 μL per well of Anti-IP1-Cryptate Tb solution and 5 μL per well of IP1-d2 dilution are added to all well of the plate and the plate is incubated for a further 60 minutes light protected at room temperature. The emission at 615 nm and 665 nm (Excitation wavelength: 320 nm) are measured using an EnVision reader (PerkinElmer). The ratio between the emission at 665 nm and 615 is calculated by the reader.
8-point four parametric non-linear curve fitting and determination of IC50 values and Hill slopes is performed using a regular analysis software e.g. AssayExplorer (Accelrys). In order to establish an agonist concentration independent parameter, Kb values are calculated using the following equation: IC50/((2+(A/EC50)^n)^1/n−1) (with A=concentration agonist, EC50=EC50 agonist, n=Hill slope agonist) (see P. Leff, I. G. Dougall, Trends Pharmacol. Sci. 1993, 14(4), 110-112).
Kb values from Assay A (OX1R) and Assay B (OX2R) can then provide a selectivity ratio which is independent of the agonist (Orexin A) concentration.

In the next series the target is T4, human MDR1 P-gp (Homo sapiens, UniProt P08183).
T4 construct: expressed in transfected cells; host or cells: MDCK (MDCK-MDR1)
Nature of the series: Assay C: efflux in MDCK cells transfected with the human MDR1 gene. Type of series: in vitro ADME. The conditions noted are these: MDCK-MDR1 cell monolayers, pH 7.4, 37° C., read-out: MDCK efflux ratio (BA/AB). The procedure: C. Assessment of Efflux in Madin-Darby Canine Kidney (MDCK) Cells Transfected with the Human MDR1 Gene
Apparent permeability coefficients (PE) of the compounds across the MDCK-MDR1 cell monolayers are measured (pH 7.4, 37° C.) in apical-to-basal (AB) and basal-to-apical (BA) transport direction. AB permeability (PEAB) represents drug absorption from the blood into the brain and BA permeability (PEBA) drug efflux from the brain back into the blood via both passive permeability as well as active transport mechanisms mediated by efflux and uptake transporters that are expressed on the MDCK-MDR1 cells, predominantly by the overexpressed human MDR1 P-gp. The compounds are assigned to permeability/absorption classes by comparison of the AB permeabilities with the AB permeabilities of reference compounds with known in vitro permeability and oral absorption in the human. Identical or similar permeabilities in both transport directions indicate passive permeation, vectorial permeability points to additional active transport mechanisms. Higher PEBA than PEAB indicates the involvement of active efflux mediated by MDR1 P-gp. Active transport is concentration-dependently saturable.
MDCK-MDR1 cells (1-2×10e5 cells/1 cm2 area) are seeded on filter inserts (Costar transwell polycarbonate or PET filters, 0.4 μm pore size) and cultured (DMEM) for 7 days. Subsequently, the MDR1 expression is boosted by culturing the cells with 5 mM sodium butyrate in full medium for 2 days. Compounds are dissolved in appropriate solvent (like DMSO, 1-20 mM stock solutions). Stock solutions are diluted with HTP-4 buffer (128.13 mM NaCl, 5.36 mM KCl, 1 mM MgSO4, 1.8 mM CaCl2, 4.17 mM NaHCO3, 1.19 mM Na2HPO4×7H2O, 0.41 mM NaH2PO4—H2O, 15 mM HEPES, 20 mM glucose, 0.25% BSA, pH 7.4) to prepare the transport solutions (0.1-300 μM compound, final DMSO<=0.5%). The transport solution (TL) is applied to the apical or basolateral donor side for measuring A-B or B-A permeability (3 filter replicates), respectively. The receiver side contains the same buffer as the donor side. Samples are collected at the start and end of experiment from the donor and at various time intervals for up to 2 hours also from the receiver side for concentration measurement by H PLC-MS/MS or scintillation counting. Sampled receiver volumes are replaced with fresh receiver solution.

Series [1] is described as follows: Assay D: assessment of log P. Type of series: physicochemical. The protocol:
The assay was performed following the description by S. F. Donovan and M. C. Pescatore in J. Chromatogr. A 952 (2002) 47-61.

A further series concerns the target T5, OX1R (Homo sapiens, UniProt O43613).
T5 sequence (O43613 1-425): T2 sequence (O43613 1-425)
As to the kind of experiment: OX1R assay of WO2016/034882, Table 3 (Method B). The conditions noted are these: read-out: OX1R IC50 (corresponds to pIC50) (converted).

T4 sequence (P08183 whole entry): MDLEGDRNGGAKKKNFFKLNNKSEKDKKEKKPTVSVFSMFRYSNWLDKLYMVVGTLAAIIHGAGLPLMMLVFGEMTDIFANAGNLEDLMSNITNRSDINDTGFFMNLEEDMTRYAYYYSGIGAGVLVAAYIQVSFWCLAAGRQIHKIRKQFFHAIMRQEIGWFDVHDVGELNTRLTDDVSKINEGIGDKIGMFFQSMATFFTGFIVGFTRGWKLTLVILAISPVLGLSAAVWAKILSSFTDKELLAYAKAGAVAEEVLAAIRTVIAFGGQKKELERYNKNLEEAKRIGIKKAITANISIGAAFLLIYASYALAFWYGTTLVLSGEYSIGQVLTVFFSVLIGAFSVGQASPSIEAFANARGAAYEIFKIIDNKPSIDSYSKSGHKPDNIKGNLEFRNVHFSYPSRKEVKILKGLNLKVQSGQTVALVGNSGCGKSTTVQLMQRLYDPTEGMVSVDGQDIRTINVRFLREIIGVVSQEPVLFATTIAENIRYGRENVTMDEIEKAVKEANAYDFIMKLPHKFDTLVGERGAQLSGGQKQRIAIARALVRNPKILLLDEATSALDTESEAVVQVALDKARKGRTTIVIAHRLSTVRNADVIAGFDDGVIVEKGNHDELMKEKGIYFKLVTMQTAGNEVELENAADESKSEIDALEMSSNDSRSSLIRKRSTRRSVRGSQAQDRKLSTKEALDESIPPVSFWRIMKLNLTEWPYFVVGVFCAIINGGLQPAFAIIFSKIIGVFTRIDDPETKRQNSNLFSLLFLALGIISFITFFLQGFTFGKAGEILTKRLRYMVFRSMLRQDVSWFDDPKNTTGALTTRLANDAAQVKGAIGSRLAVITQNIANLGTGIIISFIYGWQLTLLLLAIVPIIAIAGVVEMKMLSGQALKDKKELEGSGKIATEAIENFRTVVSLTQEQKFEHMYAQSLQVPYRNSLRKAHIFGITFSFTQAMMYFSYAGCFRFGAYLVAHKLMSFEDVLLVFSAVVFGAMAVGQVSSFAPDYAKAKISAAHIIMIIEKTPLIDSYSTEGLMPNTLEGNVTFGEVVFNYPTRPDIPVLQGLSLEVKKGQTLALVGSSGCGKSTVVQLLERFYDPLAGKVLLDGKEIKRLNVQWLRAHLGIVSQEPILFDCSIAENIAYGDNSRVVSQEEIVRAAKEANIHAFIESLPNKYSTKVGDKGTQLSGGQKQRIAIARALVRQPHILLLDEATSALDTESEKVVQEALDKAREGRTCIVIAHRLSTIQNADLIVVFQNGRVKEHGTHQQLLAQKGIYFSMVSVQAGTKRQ

As usually defined, the IC50 is the point on the concentration scale where inhibition reaches its midpoint. With `CC[C@@H](CNc1ccc(C(F)(F)F)cn1)N(CC)C(=O)c1nc(C)ccc1-n1nccn1` [drawing 9], the IC50 on OX2R is 320 nM.

Turning to `CC[C@@H](CNc1ncc(C(F)(F)F)cn1)N(C)C(=O)c1c(F)cccc1-n1nccn1` [drawing 12], the half-inhibitory concentration (IC50) on OX2R was not below 7950 nM.

What is called chromatographic logP is lipophilicity estimated from chromatographic retention. As for `CCN(C(=O)c1ccc(Cl)cc1-n1nccn1)[C@@H](C)CNc1ncc(C(F)(F)F)cn1` [Example 7], the Kb is 0.025 nM at human Orexin 1 receptor and 23.2 nM on human orexin 2 receptor. In addition, the efflux ratio at human MDR1 P-gp is less than 3. In addition, the chromatographic logP in series [1] was in the range of 2 to 4.

With `CC[C@@H](CNc1ncc(C(F)(F)F)cn1)N(C)C(=O)c1nc(C)ccc1-c1ncccn1` [drawing 11], at OX1R, the 50% inhibitory concentration (IC50) is 1.9 nM.

With `CCN(C(=O)c1cccc(F)c1-n1nccn1)[C@@H](C)CNc1ncc(C(F)(F)F)cc1F` [Example 16], the Kb at human Orexin 1 receptor was 0.014 nM; on human orexin 2 receptor, 7.6 nM. Besides, the efflux ratio on human MDR1 P-gp is less than 3. Moreover, in series [1], the chromatographic logP is 2 to 4.

On to `CCN(C(=O)c1cc(C)ccc1-n1nccn1)[C@@H](C)CNc1ncc(C(F)(F)F)cn1` [Example 2], for which the Kb on human Orexin 1 receptor is 0.011 nM; on human orexin 2 receptor it was 4.14 nM. Besides, the efflux ratio on human MDR1 P-gp is less than 3. This compound also came in with a chromatographic logP in series [1] of 2 to 4.

For the compound `CCN(C(=O)c1cc(OC)ccc1-n1nccn1)[C@@H](C)CNc1ncc(C(F)(F)F)cn1` [Example 4], the Kb on human Orexin 1 receptor was determined as 0.02 nM; on human orexin 2 receptor it was 14.4 nM. On human MDR1 P-gp, the efflux ratio was less than 3. Besides, the chromatographic logP in series [1] lay within 2 to 4.

`CCN(C(=O)c1ccc(OC)cc1-n1nccn1)[C@@H](C)CNc1ncc(C(F)(F)F)cn1` [Example 20]: the Kb turned out to be 0.091 nM at human Orexin 1 receptor and 115 nM on human orexin 2 receptor. In addition, the efflux ratio on human MDR1 P-gp is less than 3. For the same compound, the chromatographic logP in series [1] is 2 to 4.

In the case of `CCN(C(=O)c1cccc(F)c1-n1nccn1)[C@@H](C)CNc1ccc(C(F)(F)F)cn1` [Example 15], the Kb was 0.0044 nM at human Orexin 1 receptor and 3.86 nM at human orexin 2 receptor. At human MDR1 P-gp, the efflux ratio is less than 3. Further, in series [1], the chromatographic logP is 2 to 4.

Consider `CCN(C(=O)c1nc(C)sc1-c1ccccc1)[C@@H](C)CNc1ncc(C(F)(F)F)cn1` [Example 6], for which the Kb was determined as 0.013 nM at human Orexin 1 receptor and 7.03 nM on human orexin 2 receptor. The efflux ratio at human MDR1 P-gp was less than 3. Further, in series [1], the chromatographic logP was in the range of 2 to 4.
